In US12398155B2, “Thienopyridinone compounds” (Janssen Pharmaceutica NV, priority 2019, dated 2025) one finds GI50 and IC50 data, which are given here for seven compounds.

Structures can show the parent of a compound that is named as a salt.

For test [1], the target named is T1, NIH/3T3 cells overexpressing FGFR3 V555M-TACC3 fusion protein (Homo sapiens, UniProt P22607, V555M, cells depend on it).
T1 construct: NIH/3T3 FGFR3 V555M-TACC3 CTG; other: 72-hr incubation, CellTiter Glo; fused on or other part: C-terminal part of TACC3 (coiled-coil) fused behind the FGFR3 kinase domain; Q9Y6A5 (Transforming acidic coiled-coil-containing protein 3)
The test is described as follows: NIH/3T3 FGFR3 V555M-TACC3 cell proliferation assay. Type of test: cell-based. As to conditions: 72-hr incubation, CellTiter Glo; read-out: NIH/3T3 FGFR3 V555M-TACC3 CTG. As to the method:
NIH/3T3 FGFR3 V555M-TACC3 Cell Proliferation Assay
(§1) In day 1, 90 μL of cell suspension (NIH/3T3 cells overexpressing FGFR3 V555M-TACC3 fusion protein) (total 30,000 cells per well in growth medium (DMEM containing 1% Glutamax, 10% FBS and 1% Pen/Strep)) was seeded in a 96-well plate and then incubated overnight at 37° C. and 5% CO2. In day 2, 10 μL of growth medium containing 10-fold stock solution of testing compound was added into cell cultures (9 dose points with 4× serial dilution, starting with 10 μM, 0.1% DMSO final). After 72-hr incubation at 37° C. and 5% CO2, in day 5 a volume of 50 μL CellTiter Glo (CTG) reagent was added into cell-containing 96-well plate and the plate was incubated at room temperature for 10 minutes before RLUs (relative light unit) were measured on a microplate reader with luminescence detection module. The RLU value was normalized to survival % and concentration-response curve was plotted using Prism to calculate IC50 (M), pIC50 (−log IC50) and HillSlope value.

Test [2] concerns the target T2, human FGFR3 V555M enzyme (cytoplasmic domain carrying V555M mutation) (Homo sapiens, UniProt P22607, V555M).
T2 construct: cytoplasmic domain carrying V555M mutation, from Cama Biosciences; purchased Cama Biosciences (so in the source)
The test is described as follows: FGFR3 V555M mobility shift assay (enzymatic assay). In kind it is biochemical. To be noted: 30 μM ATP, 45 minutes at 30° C.; read-out: FGFR3 V555M Caliper. On the procedure:
FGFR3 V555M Mobility Shift Assay (Enzymatic Assay)
(§2) In a final reaction volume of 25 μL, 0.04 ng/μL human FGFR3 V555M enzyme (cytoplasmic domain carrying V555M mutation, from Cama Biosciences) was incubated with 30 μM ATP, 1 μM FL-peptide 30 substrate and 250 nL of testing compound (1% DMSO final) in assay buffer (100 mM HEPES pH 7.4, 10 mM MgCl2, 0.003% Brij35, 1 mM DTT). After incubation for 45 minutes at 30° C. the reaction was stopped with 10 μL of 0.5M EDTA pH 8.0, and then 25 μL of reaction mixture was transferred to reading plate and measured on Caliper EZ reader II. The substrate-product conversion rate was used as raw data for normalization and concentration-response curve (10 dose points with 4× serial dilution, starting with 10 μM) was plotted using Prism to calculate IC50 (M), pIC50 (−log IC50) and HillSlope value.

Test [3] deals with T3, NIH/3T3 cells overexpressing FGFR3 WT-TACC3 fusion protein (Homo sapiens, UniProt P22607).
T3 construct: NIH/3T3 FGFR3 WT-TACC3 CTG; other: 72-hr incubation, CellTiter Glo; fused on or other part: C-terminal part of TACC3 (coiled-coil) fused behind the FGFR3 kinase domain; Q9Y6A5 (Transforming acidic coiled-coil-containing protein 3)
The test is described as follows: NIH/3T3 FGFR3 WT-TACC3 cell proliferation assay. In kind it is cell-based. To be noted: 72-hr incubation, CellTiter Glo; read-out: NIH/3T3 FGFR3 WT-TACC3 CTG. As to the method: NIH/3T3 FGFR3 WT-TACC3 Cell Proliferation Assay
as §1, with “WT-TACC3” for “V555M-TACC3”
On the technique in general: In ATP-based viability assays light output follows the ATP content of the culture.

In test [4] the target is T4, human FGFR3 wild type enzyme (cytoplasmic domain) (Homo sapiens, UniProt P22607).
T4 construct: human FGFR3 wild type enzyme (cytoplasmic domain, from Cama Biosciences); purchased Cama Biosciences (so in the source)
The test is described as follows: FGFR3 wild type mobility shift assay (enzymatic assay). In kind it is biochemical. To be noted: 75 μM ATP, 50 minutes at 30° C.; read-out: FGFR3 wild type Caliper. As to the method:
FGFR3 Wild Type Mobility Shift Assay (Enzymatic Assay)
as §2, with “FGFR3 wild type” for “FGFR3 V555M”, “(cytoplasmic domain,” for “(cytoplasmic domain carrying V555M mutation,”, “with 75” for “with 30”, “for 50” for “for 45”

In test [5] the test system is NIH/3T3 cells transfected with control vector. Nature of the test: NIH/3T3 mock cell proliferation assay (counter assay, general toxicity). In kind it is cell-based. As to conditions: Mus musculus, NIH3T3; 72-hr incubation, CellTiter Glo; read-out: NIH/3T3 MOCK CTG. As to the method:
NIH/3T3 Mock Cell Proliferation Assay
as §1, with “cells transfected with the same control vector as in the above two proliferation assays)” for “cells overexpressing FGFR3 V555M-TACC3 fusion protein)”, “with 3×” for “with 4×”, “with 30” for “with 10”, “μM, 0.3%” for “μM, 0.1%”

T1 sequence (P22607 whole entry V555M, the tested form may be a part): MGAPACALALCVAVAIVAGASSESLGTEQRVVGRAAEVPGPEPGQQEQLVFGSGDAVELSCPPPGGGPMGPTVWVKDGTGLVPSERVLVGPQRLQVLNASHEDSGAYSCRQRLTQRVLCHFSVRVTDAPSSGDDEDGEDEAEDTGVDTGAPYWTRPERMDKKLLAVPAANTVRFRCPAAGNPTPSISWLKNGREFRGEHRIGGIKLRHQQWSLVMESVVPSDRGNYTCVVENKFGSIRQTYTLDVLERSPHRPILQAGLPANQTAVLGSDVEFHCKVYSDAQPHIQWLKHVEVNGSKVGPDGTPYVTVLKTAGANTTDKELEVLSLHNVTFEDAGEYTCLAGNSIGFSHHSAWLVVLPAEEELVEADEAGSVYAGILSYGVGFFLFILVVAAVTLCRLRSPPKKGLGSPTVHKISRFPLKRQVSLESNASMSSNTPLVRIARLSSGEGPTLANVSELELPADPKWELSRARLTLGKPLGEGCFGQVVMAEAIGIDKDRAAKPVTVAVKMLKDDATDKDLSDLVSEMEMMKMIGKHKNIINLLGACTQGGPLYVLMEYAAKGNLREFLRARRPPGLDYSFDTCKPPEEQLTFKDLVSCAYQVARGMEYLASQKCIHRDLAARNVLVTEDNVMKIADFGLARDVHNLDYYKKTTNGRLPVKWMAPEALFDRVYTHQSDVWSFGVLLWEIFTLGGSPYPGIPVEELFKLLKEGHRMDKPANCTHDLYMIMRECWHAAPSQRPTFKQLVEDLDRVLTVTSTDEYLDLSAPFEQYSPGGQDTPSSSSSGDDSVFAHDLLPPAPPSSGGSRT
T3 sequence (P22607 whole entry, change not shown, the tested form may be a part): as the sequence (P22607 whole entry V555M, the tested form may be a part) above, with M555V counted along it
T2 sequence (P22607 397-806 V555M limits assumed): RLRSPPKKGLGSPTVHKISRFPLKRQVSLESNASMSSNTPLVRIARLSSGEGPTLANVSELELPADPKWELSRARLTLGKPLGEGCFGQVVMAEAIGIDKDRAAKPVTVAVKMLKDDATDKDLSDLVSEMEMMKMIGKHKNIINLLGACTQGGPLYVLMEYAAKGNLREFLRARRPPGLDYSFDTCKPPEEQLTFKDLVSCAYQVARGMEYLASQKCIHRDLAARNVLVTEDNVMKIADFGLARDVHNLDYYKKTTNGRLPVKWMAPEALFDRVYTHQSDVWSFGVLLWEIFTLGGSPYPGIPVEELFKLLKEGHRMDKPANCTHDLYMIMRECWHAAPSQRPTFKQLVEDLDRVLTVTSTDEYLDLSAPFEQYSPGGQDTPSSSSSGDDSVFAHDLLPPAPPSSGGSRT
T4 sequence (P22607 397-806 limits assumed): as the sequence (P22607 397-806 V555M limits assumed) above, with M159V counted along it

`COCC(Nc1c(-c2nc3cnc(N4C[C@@H](C)O[C@@H](C)C4)cc3[nH]2)c(=O)[nH]c2ccsc12)c1ncccn1` (single isomer, unassigned) [Compound 7, (S*)-6-(6-(cis-2,6-dimethylmorpholino)-1H-imidazo[4,5-c]pyridin-2-yl)-7-((2-methoxy-1-(pyrimidin-2-yl)ethyl)amino)thieno[3,2-b]pyridin-5(4H)-one]: the figures for the GI50 in test [1] and in test [3] were 284 nM and 486 nM, respectively. The IC50 in test [2] stood at 2.34 nM; in test [4], 35.5 nM; in test [5], 3050 nM.
For `COCC(Nc1c(-c2nc3cnc(N4C[C@@H](C)O[C@@H](C)C4)cc3[nH]2)c(=O)[nH]c2ccsc12)c1ncccn1` (single isomer, unassigned) [Compound 8, (R*)-6-(6-(cis-2,6-dimethylmorpholino)-1H-imidazo[4,5-c]pyridin-2-yl)-7-((2-methoxy-1-(pyrimidin-2-yl)ethyl)amino)thieno[3,2-b]pyridin-5(4H)-one], the IC50 worked out at 9.42 nM in test [2] and 28.6 nM in test [4].
The corresponding values for `COC[C@@H](Nc1c(-c2nc3ccc(N4C[C@@H](C)O[C@@H](C)C4)nc3[nH]2)c(=O)[nH]c2ccsc12)c1ncccn1` (single isomer, unassigned) [Compound 10, (S*)-6-(5-(cis-2,6-dimethylmorpholino)-3H-imidazo[4,5-b]pyridin-2-yl)-7-(((S*)-2-methoxy-1-(pyrimidin-2-yl)ethyl)amino)thieno[3,2-b]pyridin-5(4H)-one] are 119 nM and 290 nM.
For the compound `COC[C@H](Nc1c(-c2nc3ccc(N4C[C@@H](C)O[C@@H](C)C4)nc3[nH]2)c(=O)[nH]c2ccsc12)c1ncccn1` (single isomer, unassigned) [Compound 11, (R*)-6-(5-(cis-2,6-dimethylmorpholino)-3H-imidazo[4,5-b]pyridin-2-yl)-7-(((R*)-2-methoxy-1-(pyrimidin-2-yl)ethyl)amino)thieno[3,2-b]pyridin-5(4H)-one], the GI50 in test [1] stood at 91.1 nM; in test [3], 101 nM. Also, the IC50 in test [2] stood at 0.93 nM; in test [4], 8.73 nM; in test [5], 3200 nM.
In the same order, the values of `CC(C)[C@H](Nc1c(-c2nc3cnc(N4CCN(C)CC4)cc3[nH]2)c(=O)[nH]c2ccsc12)c1ncccn1` (single isomer, unassigned) [Compound 12, (S*)-7-((2-methyl-1-(pyrimidin-2-yl)propyl)amino)-6-(6-(4-methylpiperazin-1-yl)-1H-imidazo[4,5-c]pyridin-2-yl)thieno[3,2-b]pyridin-5(4H)-one 0.6 formate] are 5.02 nM, 3.82 nM, 0.33 nM, 0.24 nM and 482 nM.
Turning to `C[C@@H](Nc1c(-c2nc3cnc(N4CCOCC4)cc3[nH]2)c(=O)[nH]c2ccsc12)c1ncccn1` [Compound 3, (R)-6-(6-Morpholino-1H-imidazo[4,5-c]pyridin-2-yl)-7-((1-(pyrimidin-2-yl)ethyl)amino)-thieno[3,2-b]pyridin-5(4H)-one], the IC50 in test [2] turned out to be 2.74 nM; in test [4], 21.2 nM.
In the case of `C[C@H](Nc1c(-c2nc3cnc(N4CCN(C)CC4)cc3[nH]2)c(=O)[nH]c2ccsc12)c1ncccn1` [Compound 5, (S)-6-(6-(4-methylpiperazin-1-yl)-1H-imidazo[4,5-c]pyridin-2-yl)-7-((1-(pyrimidin-2-yl)-ethyl)amino)thieno[3,2-b]pyridin-5(4H)-one], the GI50 in test [1] amounted to 4.64 nM; in test [3] it was 2.1 nM. Besides, the figures for the IC50 in test [2], in test [4] and in test [5] were 0.13 nM, 0.14 nM and 571 nM, respectively.
